Tests used:
Type in all cases: functional
Plasmodium berghei [1] = test: Parasitaemia at day 5 after 50 mg/kg/day dose over 4 days
Plasmodium berghei [2] = test: In vivo activity at day 9 against chloroquine-sensitive Plasmodium berghei infected mice (Mus musculus) at 100 mg/kg intraperitoneal dose over 4 days
Plasmodium berghei [3] = test: Parasitaemia at day 17 after combination dose at 50 mg/kg/day with 15 mg/kg/day […] over 4 days
Plasmodium berghei [4] = test: Parasitaemia at day 11 after 50 mg/kg/day dose over 4 days
Plasmodium berghei [5] = test: Parasitaemia at day 9 after combination dose at 50 mg/kg/day with 15 mg/kg/day […] over 4 days
Plasmodium berghei [6] = test: Parasitemia at day 15 after 50 mg/kg/day dose over 4 days
Plasmodium berghei [7] = test: In vivo activity at day 5 against chloroquine-sensitive Plasmodium berghei infected mice (Mus musculus) at 100 mg/kg intraperitoneal dose over 4 days
Plasmodium berghei [8] = test: Parasitaemia at day 7 after combination dose at 50 mg/kg/day with 15 mg/kg/day […] over 4 days
Plasmodium berghei [9] = test: Parasitaemia at day 15 after combination dose at 50 mg/kg/day with 15 mg/kg/day […] over 4 days
Plasmodium berghei [10] = test: Parasitaemia at day 11 after combination dose at 50 mg/kg/day with 15 mg/kg/day […] over 4 days
Plasmodium berghei [11] = test: Parasitemia at day 5 after combination dose at 50 mg/kg/day with 15 mg/kg/day […] over 4 days
Plasmodium berghei [12] = test: Parasitaemia at day 13 after 50 mg/kg/day dose over 4 days
Plasmodium berghei [13] = test: Parasitemia at day 13 after combination dose at 50 mg/kg/day with 15 mg/kg/day […] over 4 days
Plasmodium berghei [14] = test: Parasitemia at day 7 after 50 mg/kg/day dose over 4 days
Plasmodium berghei [15] = test: Parasitemia at day 9 after 50 mg/kg/day dose over 4 days
Plasmodium berghei [16] = test: Parasitemia at day 17 after 50 mg/kg/day dose over 4 days
Plasmodium berghei [17] = test: In vivo activity at day 7 against chloroquine-sensitive Plasmodium berghei infected mice (Mus musculus) at 100 mg/kg intraperitoneal dose over 4 days
Plasmodium berghei [18] = test: In vivo activity after 11 days against chloroquine-sensitive Plasmodium berghei infected mice (Mus musculus) at 100 mg/kg intraperitoneal dose over 4 days
Plasmodium berghei [19] = test: In vivo activity after 15 days against chloroquine-sensitive Plasmodium berghei infected mice (Mus musculus) at 100 mg/kg intraperitoneal dose over 4 days
Plasmodium berghei [20] = test: In vivo activity after 13 days against chloroquine-sensitive Plasmodium berghei infected mice (Mus musculus) at 100 mg/kg intraperitoneal dose over 4 days
Plasmodium berghei [21] = test: Parasitaemia at day 19 after combination dose at 50 mg/kg/day with 15 mg/kg/day […] over 4 days

SMILES: COc1ccc(/C=C/C(=O)c2ccc(OCCCOc3ccc(C(=O)/C=C/c4ccc(OC)cc4OC)cc3)cc2)c(OC)c1
- Parasitaemia (Plasmodium berghei [1]): 1.3%
- Parasitaemia (Plasmodium berghei [2]): 8%
- Parasitaemia (Plasmodium berghei [3]): 18%
- Parasitaemia (Plasmodium berghei [4]): 8.4%
- Parasitaemia (Plasmodium berghei [5]): 3.76%
- Parasitaemia (Plasmodium berghei [6]): 12.5%
- Parasitaemia (Plasmodium berghei [7]): 3.2%
- Parasitaemia (Plasmodium berghei [8]): 2.3%
- Parasitaemia (Plasmodium berghei [9]): 13.7%
- Parasitaemia (Plasmodium berghei [10]): 7.7%
- Parasitaemia (Plasmodium berghei [11]): 1.2%
- Parasitaemia (Plasmodium berghei [12]): 10%
- Parasitaemia (Plasmodium berghei [13]): 9.5%
- Parasitaemia (Plasmodium berghei [14]): 2.2%
- Parasitaemia (Plasmodium berghei [15]): 4.8%
- Parasitaemia (Plasmodium berghei [16]): 16%
- Parasitaemia (Plasmodium berghei [17]): 4.7%

SMILES: COc1cccc(/C=C/C(=O)c2ccc(OCCCCCCOc3ccc(C(=O)/C=C/c4cccc(OC)c4)cc3)cc2)c1
- Parasitaemia (Plasmodium berghei [1]): 1.8%
- Parasitaemia (Plasmodium berghei [2]): 6.8%
- Parasitaemia (Plasmodium berghei [3]): 11.5%
- Parasitaemia (Plasmodium berghei [4]): 9.5%
- Parasitaemia (Plasmodium berghei [5]): 0.14%
- Parasitaemia (Plasmodium berghei [7]): 2.1%
- Parasitaemia (Plasmodium berghei [18]): 11%
- Parasitaemia (Plasmodium berghei [8]): 0%
- Parasitaemia (Plasmodium berghei [9]): 6.6%
- Parasitaemia (Plasmodium berghei [10]): 2%
- Parasitaemia (Plasmodium berghei [11]): 0%
- Parasitaemia (Plasmodium berghei [12]): 13%
- Parasitaemia (Plasmodium berghei [13]): 3.6%
- Parasitaemia (Plasmodium berghei [14]): 3.2%
- Parasitaemia (Plasmodium berghei [15]): 7.9%
- Parasitaemia (Plasmodium berghei [17]): 3.4%

SMILES: COc1ccc(/C=C/C(=O)c2ccc(OCCCCOc3ccc(C(=O)/C=C/c4ccc(OC)cc4OC)cc3)cc2)c(OC)c1
- Parasitaemia (Plasmodium berghei [1]): 2.6%
- Parasitaemia (Plasmodium berghei [2]): 2.4%
- Parasitaemia (Plasmodium berghei [3]): 18%
- Parasitaemia (Plasmodium berghei [4]): 8%
- Parasitaemia (Plasmodium berghei [5]): 4%
- Parasitaemia (Plasmodium berghei [6]): 8.3%
- Parasitaemia (Plasmodium berghei [7]): 1.5%
- Parasitaemia (Plasmodium berghei [18]): 5.2%
- Parasitaemia (Plasmodium berghei [8]): 0.6%
- Parasitaemia (Plasmodium berghei [9]): 13%
- Parasitaemia (Plasmodium berghei [10]): 4.9%
- Parasitaemia (Plasmodium berghei [11]): 0.2%
- Parasitaemia (Plasmodium berghei [12]): 7.2%
- Parasitaemia (Plasmodium berghei [13]): 7.5%
- Parasitaemia (Plasmodium berghei [19]): 9.5%
- Parasitaemia (Plasmodium berghei [14]): 3.5%
- Parasitaemia (Plasmodium berghei [20]): 6.6%
- Parasitaemia (Plasmodium berghei [15]): 3.4%
- Parasitaemia (Plasmodium berghei [17]): 2%

SMILES: COc1ccc(/C=C/C(=O)c2ccc(OCCCCCCOc3ccc(C(=O)/C=C/c4ccc(OC)c(OC)c4)cc3)cc2)cc1OC
- Parasitaemia (Plasmodium berghei [1]): 0.8%
- Parasitaemia (Plasmodium berghei [2]): 1.3%
- Parasitaemia (Plasmodium berghei [3]): 11%
- Parasitaemia (Plasmodium berghei [4]): 4.3%
- Parasitaemia (Plasmodium berghei [5]): 1.8%
- Parasitaemia (Plasmodium berghei [6]): 15%
- Parasitaemia (Plasmodium berghei [7]): 0%
- Parasitaemia (Plasmodium berghei [18]): 2.1%
- Parasitaemia (Plasmodium berghei [8]): 0.06%
- Parasitaemia (Plasmodium berghei [9]): 7.5%
- Parasitaemia (Plasmodium berghei [10]): 2.3%
- Parasitaemia (Plasmodium berghei [11]): 0%
- Parasitaemia (Plasmodium berghei [12]): 7.3%
- Parasitaemia (Plasmodium berghei [13]): 6%
- Parasitaemia (Plasmodium berghei [19]): 4.25%
- Parasitaemia (Plasmodium berghei [14]): 1.6%
- Parasitaemia (Plasmodium berghei [20]): 3.1%
- Parasitaemia (Plasmodium berghei [15]): 2%
- Parasitaemia (Plasmodium berghei [17]): 0.16%

SMILES: COc1cccc(/C=C/C(=O)c2ccc(OCCCOc3ccc(C(=O)/C=C/c4cccc(OC)c4)cc3)cc2)c1
- Parasitaemia (Plasmodium berghei [1]): 1.75%
- Parasitaemia (Plasmodium berghei [2]): 1%
- Parasitaemia (Plasmodium berghei [3]): 9.5%
- Parasitaemia (Plasmodium berghei [4]): 4.2%
- Parasitaemia (Plasmodium berghei [5]): 3%
- Parasitaemia (Plasmodium berghei [6]): 13%
- Parasitaemia (Plasmodium berghei [7]): 0%
- Parasitaemia (Plasmodium berghei [18]): 1.8%
- Parasitaemia (Plasmodium berghei [8]): 1.1%
- Parasitaemia (Plasmodium berghei [9]): 7%
- Parasitaemia (Plasmodium berghei [10]): 3%
- Parasitaemia (Plasmodium berghei [11]): 0.08%
- Parasitaemia (Plasmodium berghei [12]): 5.4%
- Parasitaemia (Plasmodium berghei [21]): 13%
- Parasitaemia (Plasmodium berghei [13]): 4.6%
- Parasitaemia (Plasmodium berghei [19]): 1.7%
- Parasitaemia (Plasmodium berghei [14]): 1.9%
- Parasitaemia (Plasmodium berghei [20]): 1.81%
- Parasitaemia (Plasmodium berghei [15]): 4.2%
- Parasitaemia (Plasmodium berghei [16]): 19%
- Parasitaemia (Plasmodium berghei [17]): 0.52%

SMILES: COc1ccc(/C=C/C(=O)c2ccc(OCOc3ccc(C(=O)/C=C/c4ccc(OC)c(OC)c4)cc3)cc2)cc1OC
- Parasitaemia (Plasmodium berghei [1]): 1.5%
- Parasitaemia (Plasmodium berghei [2]): 7.25%
- Parasitaemia (Plasmodium berghei [3]): 11.6%
- Parasitaemia (Plasmodium berghei [4]): 10.2%
- Parasitaemia (Plasmodium berghei [5]): 0.3%
- Parasitaemia (Plasmodium berghei [7]): 2.8%
- Parasitaemia (Plasmodium berghei [8]): 0%
- Parasitaemia (Plasmodium berghei [9]): 4.4%
- Parasitaemia (Plasmodium berghei [10]): 0.8%
- Parasitaemia (Plasmodium berghei [11]): 0%
- Parasitaemia (Plasmodium berghei [12]): 14.3%
- Parasitaemia (Plasmodium berghei [21]): 22.6%
- Parasitaemia (Plasmodium berghei [13]): 1.4%
- Parasitaemia (Plasmodium berghei [14]): 2.3%
- Parasitaemia (Plasmodium berghei [15]): 5.8%
- Parasitaemia (Plasmodium berghei [17]): 5.6%

SMILES: COc1cccc(/C=C/C(=O)c2ccc(OCCCCOc3ccc(C(=O)/C=C/c4cccc(OC)c4)cc3)cc2)c1
- Parasitaemia (Plasmodium berghei [1]): 1.9%
- Parasitaemia (Plasmodium berghei [2]): 3.9%
- Parasitaemia (Plasmodium berghei [3]): 16%
- Parasitaemia (Plasmodium berghei [4]): 6.6%
- Parasitaemia (Plasmodium berghei [5]): 2.9%
- Parasitaemia (Plasmodium berghei [6]): 13.3%
- Parasitaemia (Plasmodium berghei [7]): 1.5%
- Parasitaemia (Plasmodium berghei [18]): 6.4%
- Parasitaemia (Plasmodium berghei [8]): 3.2%
- Parasitaemia (Plasmodium berghei [9]): 10%
- Parasitaemia (Plasmodium berghei [10]): 5%
- Parasitaemia (Plasmodium berghei [11]): 0.8%
- Parasitaemia (Plasmodium berghei [12]): 10.8%
- Parasitaemia (Plasmodium berghei [13]): 7.5%
- Parasitaemia (Plasmodium berghei [14]): 2.1%
- Parasitaemia (Plasmodium berghei [20]): 19%
- Parasitaemia (Plasmodium berghei [15]): 5.7%
- Parasitaemia (Plasmodium berghei [17]): 2%

SMILES: CC(=O)c1ccc(OCCCCCCOc2ccc(C(=O)/C=C/c3ccc4c(c3)OCO4)cc2)cc1
- Parasitaemia (Plasmodium berghei [1]): 2.2%
- Parasitaemia (Plasmodium berghei [2]): 4%
- Parasitaemia (Plasmodium berghei [4]): 6.5%
- Parasitaemia (Plasmodium berghei [5]): 3.2%
- Parasitaemia (Plasmodium berghei [6]): 10%
- Parasitaemia (Plasmodium berghei [7]): 1%
- Parasitaemia (Plasmodium berghei [18]): 6.3%
- Parasitaemia (Plasmodium berghei [8]): 2%
- Parasitaemia (Plasmodium berghei [9]): 8%
- Parasitaemia (Plasmodium berghei [10]): 3.2%
- Parasitaemia (Plasmodium berghei [11]): 0.02%
- Parasitaemia (Plasmodium berghei [12]): 9%
- Parasitaemia (Plasmodium berghei [13]): 5.5%
- Parasitaemia (Plasmodium berghei [14]): 3.2%
- Parasitaemia (Plasmodium berghei [15]): 4.8%
- Parasitaemia (Plasmodium berghei [17]): 2.1%

SMILES: COc1ccc(/C=C/C(=O)c2ccc(OCCCCOc3ccc(C(=O)/C=C/c4ccc(OC)c(OC)c4)cc3)cc2)cc1OC
- Parasitaemia (Plasmodium berghei [1]): 1.2%
- Parasitaemia (Plasmodium berghei [2]): 0.7%
- Parasitaemia (Plasmodium berghei [4]): 5%
- Parasitaemia (Plasmodium berghei [5]): 1.8%
- Parasitaemia (Plasmodium berghei [6]): 13.2%
- Parasitaemia (Plasmodium berghei [7]): 0%
- Parasitaemia (Plasmodium berghei [18]): 1%
- Parasitaemia (Plasmodium berghei [8]): 0.3%
- Parasitaemia (Plasmodium berghei [10]): 2.7%
- Parasitaemia (Plasmodium berghei [11]): 0.002%
- Parasitaemia (Plasmodium berghei [12]): 6.9%
- Parasitaemia (Plasmodium berghei [13]): 7.5%
- Parasitaemia (Plasmodium berghei [19]): 2%
- Parasitaemia (Plasmodium berghei [14]): 2.5%
- Parasitaemia (Plasmodium berghei [20]): 1.5%
- Parasitaemia (Plasmodium berghei [15]): 2.5%
- Parasitaemia (Plasmodium berghei [17]): 0%

SMILES: CC(=O)c1ccc(OCCCOc2ccc(C(=O)/C=C/c3ccc4c(c3)OCO4)cc2)cc1
- Parasitaemia (Plasmodium berghei [1]): 0.7%
- Parasitaemia (Plasmodium berghei [2]): 1.7%
- Parasitaemia (Plasmodium berghei [3]): 13%
- Parasitaemia (Plasmodium berghei [4]): 6.7%
- Parasitaemia (Plasmodium berghei [5]): 1.96%
- Parasitaemia (Plasmodium berghei [6]): 11.5%
- Parasitaemia (Plasmodium berghei [7]): 0%
- Parasitaemia (Plasmodium berghei [18]): 2.75%
- Parasitaemia (Plasmodium berghei [8]): 0.04%
- Parasitaemia (Plasmodium berghei [9]): 7%
- Parasitaemia (Plasmodium berghei [10]): 3%
- Parasitaemia (Plasmodium berghei [11]): 0%
- Parasitaemia (Plasmodium berghei [12]): 7.8%
- Parasitaemia (Plasmodium berghei [13]): 5.1%
- Parasitaemia (Plasmodium berghei [19]): 3.85%
- Parasitaemia (Plasmodium berghei [14]): 1.8%
- Parasitaemia (Plasmodium berghei [20]): 3%
- Parasitaemia (Plasmodium berghei [15]): 2.2%
- Parasitaemia (Plasmodium berghei [17]): 0.35%

SMILES: COc1ccc(/C=C/C(=O)c2ccc(OCOc3ccc(C(=O)/C=C/c4ccc(OC)cc4OC)cc3)cc2)c(OC)c1
- Parasitaemia (Plasmodium berghei [2]): 2%
- Parasitaemia (Plasmodium berghei [7]): 3.4%
- Parasitaemia (Plasmodium berghei [17]): 5%

SMILES: COc1ccc(/C=C/C(=O)c2ccc(OCCCOc3ccc(C(=O)/C=C/c4ccc(OC)c(OC)c4)cc3)cc2)cc1OC
- Parasitaemia (Plasmodium berghei [1]): 0.74%
- Parasitaemia (Plasmodium berghei [2]): 0.6%
- Parasitaemia (Plasmodium berghei [3]): 24%
- Parasitaemia (Plasmodium berghei [4]): 5%
- Parasitaemia (Plasmodium berghei [5]): 1.9%
- Parasitaemia (Plasmodium berghei [7]): 0.01%
- Parasitaemia (Plasmodium berghei [18]): 0.9%
- Parasitaemia (Plasmodium berghei [8]): 1.3%
- Parasitaemia (Plasmodium berghei [9]): 18%
- Parasitaemia (Plasmodium berghei [10]): 7.6%
- Parasitaemia (Plasmodium berghei [11]): 0%
- Parasitaemia (Plasmodium berghei [12]): 10.4%
- Parasitaemia (Plasmodium berghei [13]): 12.2%
- Parasitaemia (Plasmodium berghei [19]): 3%
- Parasitaemia (Plasmodium berghei [14]): 2.4%
- Parasitaemia (Plasmodium berghei [20]): 1.5%
- Parasitaemia (Plasmodium berghei [15]): 2%
- Parasitaemia (Plasmodium berghei [17]): 0.05%
